{"source": "patent US20260184669A1", "about": "“LIPID COMPOUND AND COMPOSITION FOR DELIVERY OF ACTIVE SUBSTANCE” (KOREA RESEARCH INSTIUTE OF BIOSCIENCE AND BIOTECHNOLOGY, priority 2022, published 2026)", "assay": "Stability of mRNA-LNPs according to storage temperature and duration", "type": "physicochemical", "conditions": "for Normalized EE % D-7 / PDI D-7 / Size (nm) D-7: day 7; for Normalized EE % D-30 / PDI D-30 / Size (nm) D-30: day 30", "protocol": "Stability of fLuc mRNA-LNPs produced using various ionizable lipids according to the method of Example 27, was assessed by storing the LNPs at 4° C. and 25° C. At 1, 7, and 30 days post-manufacture, the size, PDI, and encapsulation efficiency (EE) of each mRNA-LNPs samples were measured using the methods described in Experimental Examples 2 and 3.", "key": {"[1]": {"conditions": "fLuc mRNA-LNP stored at 4° C., day 1"}, "[2]": {"conditions": "fLuc mRNA-LNP stored at 25° C., day 1"}}}
{"smiles": "CCCCC/C=C\\C/C=C\\CCCCCCCCC(CCCCCCCC/C=C\\C/C=C\\CCCCC)OC(=O)CCCN(C)C", "note": "[MC3, DLin-MC3-DMA, reference compound]", "values": [{"measurement": "Normalized EE % D-1", "setting": "[1]", "result": 95.0, "unit": "%"}, {"measurement": "Size (nm) D-1", "setting": "[1]", "result": 92.8, "unit": "nm"}, {"measurement": "Normalized EE % D-7", "setting": "fLuc mRNA-LNP stored at 4° C.", "result": 94.0, "unit": "%"}, {"measurement": "PDI D-7", "setting": "fLuc mRNA-LNP stored at 4° C.", "result": 0.060}, {"measurement": "Size (nm) D-7", "setting": "fLuc mRNA-LNP stored at 4° C.", "result": 128.7, "unit": "nm"}, {"measurement": "Normalized EE % D-30", "setting": "fLuc mRNA-LNP stored at 4° C.", "result": 90.4, "unit": "%"}, {"measurement": "PDI D-30", "setting": "fLuc mRNA-LNP stored at 4° C.", "result": 0.142}, {"measurement": "Size (nm) D-30", "setting": "fLuc mRNA-LNP stored at 4° C.", "result": 125.6, "unit": "nm"}, {"measurement": "Normalized EE % D-1", "setting": "[2]", "result": 95.0, "unit": "%"}, {"measurement": "PDI D-1", "setting": "[2]", "result": 0.174}, {"measurement": "Size (nm) D-1", "setting": "[2]", "result": 92.8, "unit": "nm"}, {"measurement": "Normalized EE % D-7", "setting": "fLuc mRNA-LNP stored at 25° C.", "result": 90.8, "unit": "%"}, {"measurement": "PDI D-7", "setting": "fLuc mRNA-LNP stored at 25° C.", "result": 0.110}, {"measurement": "Size (nm) D-7", "setting": "fLuc mRNA-LNP stored at 25° C.", "result": 123.0, "unit": "nm"}, {"measurement": "Normalized EE % D-30", "setting": "fLuc mRNA-LNP stored at 25° C.", "result": 88.3, "unit": "%"}, {"measurement": "PDI D-30", "setting": "fLuc mRNA-LNP stored at 25° C.", "result": 0.123}, {"measurement": "Size (nm) D-30", "setting": "fLuc mRNA-LNP stored at 25° C.", "result": 119.3, "unit": "nm"}]}
